The subject of this test is drug-resistant Mycobacterium tuberculosis. Briefly: Mycobacterium tuberculosis assay. The test is classed as cell-based. The conditions noted are these: 10 micrograms per ml; seven days; strain resistant to PAS, streptomycin and INH; combination 0.95:1.05 mole and all ratios 1:100 to 100:1.

The record followed here is patent US20100204150A1, “USE OF A PEPTIDE AS A THERAPEUTIC AGENT” (priority 2007, published 2010).

Where no end group is shown, it is not given here. [ ]: non-standard residue; d: D form.

For “Ac-Arg-Phe-Met-Trp-Met-Arg-NH2 (Ac-RFMWMR-NH2) [Peptide 2]”, the “inhibition of the growth of Mycobacterium tuberculosis” value was found to be 100%.

With HPFHL[dL]VY-OH [Peptide 1], the “inhibition of the growth of Mycobacterium tuberculosis” value is 100%.
